The source of these data is BindingDB's records for doi:10.7270/Q2ZC817P (The Scripps Research Institute Molecular Screening Center, 2007).

Counter-ions that a name gives are not always drawn. Some results are limits rather than exact numbers.

In the first assay the target is Sphingosine 1-phosphate receptor 1 (Homo sapiens, UniProt P21453). Nature of the assay: S1P1 agonism potentiation – cell-based, potentiator mode, 60K MLSMR set, dose response (AID 466).
Chain of Sphingosine 1-phosphate receptor 1 (P21453 whole entry): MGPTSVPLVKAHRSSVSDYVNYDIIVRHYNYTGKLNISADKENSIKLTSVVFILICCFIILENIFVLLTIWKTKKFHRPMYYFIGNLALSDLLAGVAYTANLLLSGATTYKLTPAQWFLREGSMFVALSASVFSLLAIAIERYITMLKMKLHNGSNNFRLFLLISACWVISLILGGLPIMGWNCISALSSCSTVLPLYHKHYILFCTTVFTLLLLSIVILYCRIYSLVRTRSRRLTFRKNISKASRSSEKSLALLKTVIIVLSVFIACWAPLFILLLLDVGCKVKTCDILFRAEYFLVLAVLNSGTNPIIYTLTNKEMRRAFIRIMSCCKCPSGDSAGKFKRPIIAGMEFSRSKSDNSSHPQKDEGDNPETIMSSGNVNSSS
Settings: not given
As to `CCc1ccc2oc(-c3cc(N)cc(C)c3O)nc2c1` [(6E)-4-amino-6-(5-ethyl-3H-1,3-benzoxazol-2-ylidene)-2-methyl-1-cyclohexa-2,4-dienone], the EC50 worked out at 11.6 µM.
Same read-out and setting: then `CCOc1ccc(-c2nc(-c3ccccc3C)no2)cc1` [3-(o-tolyl)-5-p-phenetyl-1,2,4-oxadiazole], with 1.52 µM; and `COc1cc(CSc2nnnn2-c2ccc(C)cc2)cc(OC)c1OC` [1-(4-methylphenyl)-5-[(3,4,5-trimethoxybenzyl)thio]-1H-tetrazole], with 2.87 µM.
Take `O=C(CSc1nnc(-c2c[nH]c3ccccc23)o1)N1c2ccccc2CCc2ccccc21`: the EC50 came to 7.48 µM.
Still for that read-out and setting: for `Cc1nnc(SC(=O)N2c3ccccc3Sc3ccccc32)s1` [10-phenothiazinecarbothioic acid S-(5-methyl-1,3,4-thiadiazol-2-yl) ester] the value was 3.63 µM.
Still for that read-out and setting: for `c1ccc(C(Cc2nc(-c3cccnc3)no2)c2ccccc2)cc1` [5-(2,2-diphenylethyl)-3-(3-pyridinyl)-1,2,4-oxadiazole] the value was 2.66 µM.
Same read-out and setting: for `CC(C)N1C(=O)CCC1C(=O)N1CCC(Cc2ccccc2)CC1` (stereo unspecified) [5-(4-benzylpiperidine-1-carbonyl)-1-isopropyl-2-pyrrolidone] the value was more than 95 µM.
Take `COc1ccc(N2CCn3c2nc2c3c(=O)n(CCCc3ccccc3)c(=O)n2C)c(OC)c1` [6-(2,4-dimethoxyphenyl)-4-methyl-2-(3-phenylpropyl)-7,8-dihydropurin[7,8-a]imidazole-1,3-quinone]: the EC50 was found to be 8.71 µM.
The same measure, in the same setting: for `CCOc1ccc(C(C)=O)cc1-n1c(O)c2c(c1O)C1C=CC2O1` [MLS000087730] the value was 10.8 µM; for `CCOc1ccc(-c2nc(CSCC(=O)N3CCN(c4cccc(OC)c4)CC3)c(C)o2)cc1` [1-[4-(3-methoxyphenyl)piperazino]-2-[(5-methyl-2-p-phenetyl-oxazol-4-yl)methylthio]ethanone], 7.42 µM.
Same read-out and setting: for `O=C(C1CCCN1S(=O)(=O)c1cccc2cccnc12)N1CCN(c2ccccc2)CC1` (stereo unspecified) [(4-phenyl-1-piperazinyl)-[1-(8-quinolinylsulfonyl)-2-pyrrolidinyl]methanone] the value was more than 95 µM; for `O=C(Oc1cccc(C(=O)N2CCOCC2)c1)c1ccc(Br)cc1` [(3-morpholin-4-ylcarbonylphenyl) 4-bromanylbenzoate], more than 95 µM.
Still for that read-out and setting: then `Nc1ccc(N2CCCCCC2)cc1` [4-(1-azepanyl)aniline;hydrochloride], with more than 30 µM; and `Cn1ncnc2c(=O)n(C)c(=O)nc1-2`, with 1.73 µM.
Take `O=C(Nc1nc(-c2ccc(Cl)s2)cs1)c1ccncc1` [MLS000098514]: the EC50 is more than 10 µM.
The same measure, in the same setting: then `CCCCOc1ncnc2c1[nH]c1ccccc12` [MLS000041483], with 4.52 µM; and `O=C(CSc1nnc(-c2cc3ccccc3cc2O)n1Cc1ccco1)c1ccc(F)cc1` [(3Z)-3-[3-[2-(4-fluorophenyl)-2-oxidanylidene-ethyl]sulfanyl-4-(furan-2-ylmethyl)-1H-1,2,4-triazol-5-ylidene]naphthalen-2-one], with 23.1 µM.
As for `CCc1ccc(NC(=O)c2cc(-c3ccco3)on2)cc1` [MLS000087211], the EC50 amounted to 4.44 µM.
On the same count and under the same terms, for `Cc1ccc(C(C)C)c(OCc2ccc(-c3nnco3)cc2)c1` [2-[4-[(2-isopropyl-5-methyl-phenoxy)methyl]phenyl]-1,3,4-oxadiazole] the value was 1.72 µM; for `Oc1c(Cl)cc(Cl)cc1Sc1cc(Cl)cc(Cl)c1O`, 1.24 µM.
For `COc1ccccc1N=C(N)Nc1nc(CSc2ccc(C)cc2)cc(=O)[nH]1` [1-(2-methoxyphenyl)-2-[6-[[(4-methylphenyl)thio]methyl]-4-oxo-1H-pyrimidin-2-yl]guanidine], the EC50 was found to be 9.15 µM.
Still for that read-out and setting: for `CCOC(=O)c1sc2nc(NC(=O)C3CCCCC3)sc2c1C` [2-(cyclohexanecarbonylamino)-6-methyl-thieno[2,3-d]thiazole-5-carboxylic acid ethyl ester] the value was more than 30 µM; for `Cn1c(C(=O)N2CCc3ccccc3C2)cc2oc3ccccc3c21` [2-(3,4-dihydroisoquinolin-2(1H)-ylcarbonyl)-1-methyl-1H-[1]benzofuro[3,2-b]pyrrole], more than 30 µM; for `c1ccc2c(c1)oc1c(N3CCN(Cc4ccc5c(c4)OCO5)CC3)ncnc12`, 6.55 µM.
Same read-out and setting: for `CCCC(=O)Nc1ccc2oc(-c3ccc(OC)c(Br)c3)nc2c1` [MLS000042482] the value was 4.14 µM.
Still for that read-out and setting: for `COc1cc(C(=O)N2CCN(S(=O)(=O)c3ccc(C)cc3)CC2)ccc1OCc1c(C)noc1C` [MLS000056221] the value was more than 95 µM.
With `COC(=O)Cc1sc(=O)[nH]c1Nc1ccccc1` [MLS000111966], the half-maximal effective concentration (EC50) is more than 95 µM.
On the same count and under the same terms, then `COc1ccc(-n2nnnc2S(=O)(=O)CC(=O)N2CCCCC2)cc1` [2-[1-(4-methoxyphenyl)tetrazol-5-yl]sulfonyl-1-piperidin-1-ylethanone], with 9.83 µM.
The same measure, in the same setting: then `Oc1ccc(-c2nnc(-c3ccc(O)cc3)nn2)cc1` [4,4'-(1,2,4,5-tetrazine-3,6-diyl)diphenol], with more than 10 µM; and `CCCCNc1cc(C)nc(NCc2ccccc2)n1` [2-N-benzyl-4-N-butyl-6-methylpyrimidine-2,4-diamine], with 5.39 µM; and `Nc1nonc1C(=O)NCCNCc1cc(Br)ccc1OCc1ccc(F)cc1` [4-amino-N-[2-[[5-bromo-2-(4-fluorobenzyl)oxy-benzyl]amino]ethyl]furazan-3-carboxamide;hydrochloride], with 7.81 µM.
The same measure, in the same setting: for `Cn1c(=O)oc2cc(S(=O)(=O)N3CCCC(C(=O)N4CC=C(c5ccccc5)CC4)C3)ccc21` (stereo unspecified) [3-methyl-6-[3-(4-phenyl-3,6-dihydro-2H-pyridine-1-carbonyl)piperidin-1-yl]sulfonyl-1,3-benzoxazol-2-one] the value was 9.49 µM.
Turning to `CCC(NCc1ccc2c(c1)OCO2)=C1C(=O)NC(=O)N(C2CCCCC2)C1=O` [(5E)-5-[1-(1,3-benzodioxol-5-ylmethylamino)propylidene]-1-cyclohexyl-1,3-diazinane-2,4,6-trione], the EC50 turned out to be 8.66 µM.
As for `O=C(Nc1nccs1)c1ccc(S(=O)(=O)NCC2CCCCC2)cc1` [4-(Cyclohexylmethyl-sulfamoyl)-N-thiazol-2-yl-benzamide], the EC50 was determined as 7.5 µM.
Turning to `CC(=O)Nc1cc(OC(C)=O)c2nonc2c1OC(C)=O` [Acetic acid 7-acetoxy-5-acetylamino-benzo[1,2,5]oxadiazol-4-yl ester], the EC50 was found to be 5.71 µM.
On the same count and under the same terms, for `COc1ccc(-c2nc3cc(NC(=O)Cc4ccc(OC)c(OC)c4)ccc3o2)cc1` [2-(3,4-dimethoxyphenyl)-N-[2-(4-methoxyphenyl)-1,3-benzoxazol-5-yl]acetamide] the value was 9.09 µM; for `COc1ccc2c(c1)CCc1c(C(=O)Nc3ccc(OC)c(OC)c3)noc1-2` [MLS000087452], 2.83 µM; for `CCOc1ccc(-c2noc(-c3ccncc3)n2)cc1OCC` [3-(3,4-diethoxyphenyl)-5-(4-pyridyl)-1,2,4-oxadiazole], 0.428 µM.
`COc1ccc(-c2noc(-c3cccc(OC)c3OC)n2)cc1OC` [5-(2,3-dimethoxyphenyl)-3-(3,4-dimethoxyphenyl)-1,2,4-oxadiazole]: the EC50 stood at 1.02 µM.
Consider `COc1ccccc1-c1nc(-c2cccc(C)c2)no1` [5-(2-methoxyphenyl)-3-(3-methylphenyl)-1,2,4-oxadiazole], for which the EC50 was 0.999 µM.
On the same count and under the same terms, then `O=C(Nc1cccc(C(F)(F)F)c1)C1CCCN1S(=O)(=O)c1cccc2cccnc12` (stereo unspecified) [1-(8-quinolinylsulfonyl)-N-[3-(trifluoromethyl)phenyl]-2-pyrrolidinecarboxamide], with 5.41 µM.
In the case of `Cc1nc2ccccc2c2oc(C(=O)NCC3COc4ccccc4O3)cc12` (stereo unspecified) [MLS000118430], the EC50 is 9.7 µM.
Still for that read-out and setting: for `CCC(NC(C)c1ccccc1)=C1C(=O)N(C)C(=O)N(C)C1=O` (stereo unspecified) [SMR000043429] the value was 14.4 µM.

The assay is the same for the next values; noted with them: inactive by the depositor's call.
Take `CCOc1ccccc1COC(=O)c1cccc(-n2cnnn2)c1` [(2-ethoxyphenyl)methyl 3-(1,2,3,4-tetrazol-1-yl)benzoate]: the EC50 was 25.8 µM.
The same measure, in the same setting: then `COc1ccc(-n2c(C)c(C(C)=O)c3cc(O)ccc32)cc1` [1-[1-(4-methoxyphenyl)-2-methyl-5-oxidanyl-indol-3-yl]ethanone], with 24.2 µM.
Same read-out and setting: for `CCOC(=O)c1ccc(NC(=O)CCc2nc(-c3ccc(Cl)cc3)no2)cc1` [4-[3-[3-(4-chlorophenyl)-1,2,4-oxadiazol-5-yl]propanoylamino]benzoic acid ethyl ester] the value was 13 µM; for `Brc1ccc2ncnc(Nc3ccc(N4CCOCC4)cc3)c2c1` [(6-bromoquinazolin-4-yl)-(4-morpholinophenyl)amine], 15.1 µM; for `O=S1(=O)C=C(Sc2nnc(-c3ccccc3)o2)c2ccccc21`, 23.5 µM.
On to `CC1CC(C)(C)Nc2ccc(OC(=O)c3ccco3)cc21` (stereo unspecified) [(2,2,4-trimethyl-3,4-dihydro-1H-quinolin-6-yl) furan-2-carboxylate], for which the EC50 came to 14 µM.
The same measure, in the same setting: for `CN1CCN(C(=O)CSc2nc(-c3cccs3)cc(-c3cccs3)c2C#N)CC1` [2-[2-(4-methylpiperazin-1-yl)-2-oxidanylidene-ethyl]sulfanyl-4,6-dithiophen-2-yl-pyridine-3-carbonitrile] the value was 12.9 µM.
Same read-out and setting: then `Cc1ccc(C(=O)c2cncc(Br)c2)cc1` [(5-bromanylpyridin-3-yl)-(4-methylphenyl)methanone], with 12.6 µM; and `CCCCCn1c(=O)c(C(=O)NCc2ccncc2)c(O)c2ccccc21` [1-amyl-2-hydroxy-4-keto-N-(4-pyridylmethyl)quinoline-3-carboxamide], with 24.4 µM; and `CCCOC(=O)c1ccc(OCC(O)Cn2c(C)nc3ccccc32)cc1` (stereo unspecified) [4-[2-hydroxy-3-(2-methyl-1-benzimidazolyl)propoxy]benzoic acid propyl ester], with 10 µM.
`Cc1ccc(S(=O)(=O)n2nc(C)c(Br)c2C)c(C)c1C` [4-bromanyl-3,5-dimethyl-1-(2,3,4-trimethylphenyl)sulfonyl-pyrazole]: the EC50 worked out at 83.1 µM.
Still for that read-out and setting: then `CCOc1nc(-c2ccccc2)ccc1-c1noc(-c2ccco2)n1` [2-Ethoxy-3-(5-furan-2-yl-[1,2,4]oxadiazol-3-yl)-6-phenyl-pyridine], with 14.8 µM.
Still for that read-out and setting: for `c1ccc(N2CCN(Cc3ccnc4ccccc34)CC2)cc1` [4-[(4-phenyl-1-piperazinyl)methyl]quinoline] the value was 10.6 µM.
